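Step 1: Grow cells in 96-well plates. Step 2: Expose to compound for 48 hours at 5 concentrations. Step 3: Interpolate endpoints linearly; if unreached, use highest concentration. The concentration for 50% growth inhibition is given as GI50.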 Activity calls are given as the source filed them. No stated cut-off is given here; in the data, active = GI50 up to about 1.1 µM and inactive = higher.
What was measured:
Experiment in all cases: NCI tumour cell line growth inhibition, 48 h
OVCAR-8 = test system: OVCAR-8
HCC 2998 = test system: HCC 2998
HOP-92 = test system: HOP-92
ACHN = test system: ACHN
RXF 393 = test system: RXF 393
SK-MEL-5 = test system: SK-MEL-5
NCI-H460 = test system: NCI-H460
OVCAR-5 = test system: OVCAR-5
SK-MEL-2 = test system: SK-MEL-2
EKVX = test system: EKVX
UO-31 = test system: UO-31
COLO 205 = test system: COLO 205
TK-10 = test system: TK-10
OVCAR-3 = test system: OVCAR-3
LOX IMVI = test system: LOX IMVI
HOP-62 = test system: HOP-62
OVCAR-4 = test system: OVCAR-4
NCI-H522 = test system: NCI-H522
HCT-15 = test system: HCT-15
786-0 = test system: 786-0

Structure (SMILES)	GI50 (OVCAR-8)	GI50 (HCC 2998)	GI50 (HOP-92)	GI50 (ACHN)	GI50 (RXF 393)	GI50 (SK-MEL-5)	GI50 (NCI-H460)	GI50 (OVCAR-5)	GI50 (SK-MEL-2)	GI50 (EKVX)	GI50 (UO-31)	GI50 (COLO 205)	GI50 (TK-10)	GI50 (OVCAR-3)	GI50 (LOX IMVI)	GI50 (HOP-62)	GI50 (OVCAR-4)	GI50 (NCI-H522)	GI50 (HCT-15) [µM]	GI50 (786-0)
CC/C=C(\C(=C/CC)[N+](=O)[O-])[N+](=O)[O-]	21.4 µM (inactive)	19.4 µM (inactive)	23.7 µM (inactive)	18.7 µM (inactive)	14.9 µM (inactive)	31 µM (inactive)	18 µM (inactive)	13.4 µM (inactive)	47.5 µM (inactive)	15.6 µM (inactive)	18.9 µM (inactive)	17.8 µM (inactive)	18.1 µM (inactive)	16.1 µM (inactive)	17.5 µM (inactive)	58.2 µM (inactive)	22.8 µM (inactive)	–	–	–
CCCNC(=O)C(C)C1CCC2(C)C=CC(=O)C(C)=C2C1O (configuration not stated)	> 100 µM (inactive)	> 100 µM (inactive)	> 100 µM (inactive)	–	> 100 µM (inactive)	> 100 µM (inactive)	> 100 µM (inactive)	> 100 µM (inactive)	> 100 µM (inactive)	> 100 µM (inactive)	> 100 µM (inactive)	> 100 µM (inactive)	–	> 100 µM (inactive)	> 100 µM (inactive)	> 100 µM (inactive)	> 100 µM (inactive)	> 100 µM (inactive)	> 100	–
Oc1cc(Cl)cc2cc(Br)cnc12	2.3 µM (inactive)	15.6 µM (inactive)	4.69 µM (inactive)	1.88 µM (inactive)	2.29 µM (inactive)	1.53 µM (inactive)	1.99 µM (inactive)	8.95 µM (inactive)	–	4.14 µM (inactive)	3.94 µM (inactive)	41.6 µM (inactive)	41.3 µM (inactive)	1.52 µM (inactive)	0.463 µM (active)	3.4 µM (inactive)	3.49 µM (inactive)	2.74 µM (inactive)	0.771	9.86 µM (inactive)
Cc1nc2ccc(C(F)(F)F)cc2nc1Nc1ccc(Cl)c(Cl)c1	12.8 µM (inactive)	3.72 µM (inactive)	3.27 µM (inactive)	11.3 µM (inactive)	6.49 µM (inactive)	–	2.65 µM (inactive)	15.4 µM (inactive)	14.3 µM (inactive)	> 10 µM (inactive)	12.2 µM (inactive)	3.94 µM (inactive)	17.6 µM (inactive)	12.8 µM (inactive)	3.03 µM (inactive)	16 µM (inactive)	–	–	6.12	4.69 µM (inactive)
C[C@H]1COC(c2ccccn2)=N1	> 100 µM (inactive)	> 100 µM (inactive)	> 100 µM (inactive)	–	> 100 µM (inactive)	> 100 µM (inactive)	> 100 µM (inactive)	> 100 µM (inactive)	> 100 µM (inactive)	> 100 µM (inactive)	> 100 µM (inactive)	> 100 µM (inactive)	–	> 100 µM (inactive)	> 100 µM (inactive)	> 100 µM (inactive)	> 100 µM (inactive)	> 100 µM (inactive)	> 100	–
CSc1nc2c(c(=O)n1C)N=C(c1ccc(Cl)cc1)CC(c1ccccc1)N2 (configuration not stated)	27.8 µM (inactive)	24.6 µM (inactive)	33.8 µM (inactive)	19 µM (inactive)	39.4 µM (inactive)	19.5 µM (inactive)	–	33.8 µM (inactive)	13.9 µM (inactive)	20.9 µM (inactive)	24.5 µM (inactive)	21.7 µM (inactive)	–	33.7 µM (inactive)	20.6 µM (inactive)	27.6 µM (inactive)	6.84 µM (inactive)	17.6 µM (inactive)	–	31 µM (inactive)
O=c1cnn(C/C=C\CO)c(=O)[nH]1	> 100 µM (inactive)	> 100 µM (inactive)	> 100 µM (inactive)	> 100 µM (inactive)	> 100 µM (inactive)	> 100 µM (inactive)	> 100 µM (inactive)	> 100 µM (inactive)	> 100 µM (inactive)	> 100 µM (inactive)	> 100 µM (inactive)	> 100 µM (inactive)	75.2 µM (inactive)	> 100 µM (inactive)	> 100 µM (inactive)	> 100 µM (inactive)	–	> 100 µM (inactive)	> 100	–
C[C@]12CC[C@H](OC(=O)Cc3ccc(N(CCCl)CCCl)cc3)CC1=CC[C@@H]1[C@@H]2CC[C@]2(C)C(=O)CC[C@@H]12	> 100 µM (inactive)	> 100 µM (inactive)	> 100 µM (inactive)	> 100 µM (inactive)	> 100 µM (inactive)	> 100 µM (inactive)	> 100 µM (inactive)	> 100 µM (inactive)	> 100 µM (inactive)	> 100 µM (inactive)	> 100 µM (inactive)	> 100 µM (inactive)	> 100 µM (inactive)	> 100 µM (inactive)	> 100 µM (inactive)	> 100 µM (inactive)	–	> 100 µM (inactive)	> 100	–
CCCc1[nH]c(SCCCCCCCCSc2nc(-c3ccc(F)cc3)c(CCC)[nH]2)nc1-c1ccc(F)cc1	9.84 µM (inactive)	> 100 µM (inactive)	3.8 µM (inactive)	54.1 µM (inactive)	27.4 µM (inactive)	4.68 µM (inactive)	35.2 µM (inactive)	33 µM (inactive)	24.2 µM (inactive)	4.89 µM (inactive)	6.11 µM (inactive)	77.4 µM (inactive)	17.7 µM (inactive)	1.94 µM (inactive)	10.3 µM (inactive)	15.2 µM (inactive)	10.3 µM (inactive)	–	7	–
O=C(/C=C/c1ccccc1)Oc1cccc(O)c1	44.3 µM (inactive)	> 100 µM (inactive)	> 100 µM (inactive)	> 100 µM (inactive)	> 100 µM (inactive)	37.5 µM (inactive)	> 100 µM (inactive)	30.3 µM (inactive)	> 100 µM (inactive)	–	> 100 µM (inactive)	55 µM (inactive)	> 100 µM (inactive)	73.8 µM (inactive)	27.5 µM (inactive)	53.6 µM (inactive)	36.3 µM (inactive)	6.81 µM (inactive)	16.6	77.8 µM (inactive)
COc1ccc(NC2Oc3cc4c(cc3C(c3cc(OC)c(O)c(OC)c3)C2C)OCO4)cc1 (configuration not stated)	4.45 µM (inactive)	5.22 µM (inactive)	23.8 µM (inactive)	4.01 µM (inactive)	7.73 µM (inactive)	1.96 µM (inactive)	3.83 µM (inactive)	7.66 µM (inactive)	2.25 µM (inactive)	–	5.97 µM (inactive)	8.87 µM (inactive)	2.23 µM (inactive)	5.21 µM (inactive)	–	–	48.2 µM (inactive)	3.33 µM (inactive)	1.79	3.72 µM (inactive)
C/C(CC(O)(C(F)(F)F)C(F)(F)F)=N/Nc1ccc([N+](=O)[O-])cc1[N+](=O)[O-]	3 µM (inactive)	3.6 µM (inactive)	1.8 µM (inactive)	2.56 µM (inactive)	2.12 µM (inactive)	1.68 µM (inactive)	3.11 µM (inactive)	–	2.28 µM (inactive)	2.26 µM (inactive)	2.32 µM (inactive)	2.05 µM (inactive)	3.56 µM (inactive)	1.96 µM (inactive)	3.3 µM (inactive)	2.99 µM (inactive)	3.42 µM (inactive)	2.07 µM (inactive)	2.85	3.5 µM (inactive)
COc1ccc2nc3c(C(=O)NCCN(C)C)cccc3cc2c1	1.47 µM (inactive)	3.79 µM (inactive)	2.28 µM (inactive)	–	1.78 µM (inactive)	1.64 µM (inactive)	0.724 µM (active)	2.1 µM (inactive)	2.49 µM (inactive)	2.34 µM (inactive)	1.44 µM (inactive)	0.893 µM (active)	–	–	1.63 µM (inactive)	2.63 µM (inactive)	2.6 µM (inactive)	–	2.25	–
NC(Cc1cc(I)c(O)c(I)c1)C(=O)O (configuration not stated)	> 500 µM (inactive)	> 500 µM (inactive)	13.6 µM (inactive)	–	252 µM (inactive)	> 500 µM (inactive)	301 µM (inactive)	> 427 µM (inactive)	> 500 µM (inactive)	> 316 µM (inactive)	> 500 µM (inactive)	263 µM (inactive)	–	> 500 µM (inactive)	209 µM (inactive)	> 500 µM (inactive)	211 µM (inactive)	44.5 µM (inactive)	307	–
CCCCCCOP(=O)(OCCCCCC)C(NC(=O)OCC)(C(F)(F)F)C(F)(F)F	36.1 µM (inactive)	> 10 µM (inactive)	28.4 µM (inactive)	28.8 µM (inactive)	11.7 µM (inactive)	20 µM (inactive)	30.3 µM (inactive)	43.8 µM (inactive)	22.9 µM (inactive)	64.6 µM (inactive)	28.6 µM (inactive)	16.6 µM (inactive)	43.7 µM (inactive)	45.1 µM (inactive)	24.6 µM (inactive)	> 100 µM (inactive)	–	28.1 µM (inactive)	30.4	–
CCOC(=O)N/N=C(/N)Cc1ccccc1	> 100 µM (inactive)	> 100 µM (inactive)	> 100 µM (inactive)	> 100 µM (inactive)	> 100 µM (inactive)	> 100 µM (inactive)	> 100 µM (inactive)	> 100 µM (inactive)	> 100 µM (inactive)	> 100 µM (inactive)	> 100 µM (inactive)	> 100 µM (inactive)	> 100 µM (inactive)	> 100 µM (inactive)	> 100 µM (inactive)	> 100 µM (inactive)	–	> 100 µM (inactive)	> 100	> 100 µM (inactive)

From ChEMBL document CHEMBL1201862, “PubChem BioAssay data set” (2004)
